Reference: ChEMBL document CHEMBL1201862, “PubChem BioAssay data set” (2004)
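Cultured in 96-well plates, cells were exposed to test compound for 48 hours across five concentrations. Here, GI50 denotes the concentration required for 50% inhibition of growth.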 Active and inactive are the calls of the source. Cut-off read from the data, not from the text of the source: active = GI50 up to about 1.1 µM and inactive = higher.

Tests used:
Assay in all cases: growth of human tumour cells (NCI), 48 h
LOX IMVI = system: LOX IMVI
HOP-92 = system: HOP-92
SNB-75 = system: SNB-75
OVCAR-3 = system: OVCAR-3
OVCAR-4 = system: OVCAR-4
TK-10 = system: TK-10
HCT-116 = system: HCT-116
MDA-MB-231 = system: MDA-MB-231
MCF7 = system: MCF7
SW-620 = system: SW-620
MDA-MB-435 = system: MDA-MB-435
SK-MEL-2 = system: SK-MEL-2
RXF 393 = system: RXF 393
SK-MEL-5 = system: SK-MEL-5
EKVX = system: EKVX
MOLT-4 = system: MOLT-4
UACC-257 = system: UACC-257
KM12 = system: KM12
SR = system: SR
HL-60 = system: HL-60

Measured: GI50

c1ccc(B2OCC(C3OB(c4ccccc4)OC4COB(c5ccccc5)OC43)O2)cc1 (stereo not given)
inactive: LOX IMVI > 100 µM | HOP-92 > 100 µM | SNB-75 > 100 µM | OVCAR-3 > 100 µM | OVCAR-4 > 100 µM | TK-10 > 100 µM | HCT-116 > 100 µM | MDA-MB-231 > 100 µM | MCF7 > 100 µM | SW-620 > 100 µM | MDA-MB-435 > 100 µM | SK-MEL-2 > 100 µM | RXF 393 > 100 µM | SK-MEL-5 > 100 µM | EKVX > 100 µM | MOLT-4 > 100 µM | UACC-257 > 100 µM | KM12 > 100 µM | SR > 100 µM

C/C(=N/NC(=S)Nc1ccc(Cl)cc1)c1cccc(/C(C)=N\NC(=S)Nc2ccc(Cl)cc2)n1
inactive: LOX IMVI 4.58 µM | HOP-92 3.17 µM | SNB-75 7.48 µM | OVCAR-3 1.49 µM | OVCAR-4 13.4 µM | TK-10 2.81 µM | HCT-116 2.9 µM | MDA-MB-231 4.14 µM | MCF7 1.93 µM | SW-620 4.12 µM | MDA-MB-435 12.3 µM | SK-MEL-2 5.41 µM | RXF 393 4.01 µM | SK-MEL-5 1.86 µM | EKVX 5.45 µM | MOLT-4 2.34 µM | UACC-257 4.5 µM | KM12 3.66 µM | SR 1.19 µM

CC(=O)OCC1OC(OCCCOP(=S)(OCCC#N)OCC2OC(n3ccc(N)nc3=O)C(OC(=O)c3ccccc3)C2OC(=O)c2ccccc2)C(OC(C)=O)C(OC(C)=O)C1OC(C)=O (stereo not given)
inactive: LOX IMVI > 100 µM | HOP-92 > 100 µM | SNB-75 75.5 µM | OVCAR-3 > 100 µM | OVCAR-4 > 100 µM | TK-10 > 100 µM | HCT-116 > 100 µM | MDA-MB-231 > 100 µM | MCF7 46.6 µM | SW-620 > 100 µM | MDA-MB-435 > 100 µM | SK-MEL-2 > 100 µM | RXF 393 > 100 µM | SK-MEL-5 > 100 µM | EKVX > 100 µM | MOLT-4 > 100 µM | UACC-257 > 100 µM | KM12 > 100 µM | SR > 100 µM

CCOC1OCCCC1Br (stereo not given)
inactive: LOX IMVI > 100 µM | HOP-92 > 100 µM | SNB-75 > 100 µM | OVCAR-3 > 100 µM | OVCAR-4 > 100 µM | TK-10 > 100 µM | HCT-116 > 100 µM | MDA-MB-231 > 100 µM | MCF7 > 100 µM | SW-620 > 100 µM | MDA-MB-435 > 100 µM | SK-MEL-2 > 100 µM | RXF 393 > 100 µM | SK-MEL-5 > 100 µM | EKVX > 100 µM | MOLT-4 > 100 µM | UACC-257 > 100 µM | KM12 > 100 µM | SR > 100 µM

COC1(C)/C=N/CC(C)(C)NC(=O)C(C)(OC)/C=N/CC(C)(C)NC1=O (stereo not given)
inactive: HOP-92 > 10 µM | SNB-75 > 10 µM | OVCAR-4 > 10 µM | TK-10 > 10 µM | HCT-116 > 10 µM | MDA-MB-231 > 10 µM | MCF7 > 10 µM | SW-620 > 10 µM | MDA-MB-435 > 10 µM | HL-60 > 10 µM | RXF 393 > 10 µM | SK-MEL-5 > 10 µM | EKVX > 10 µM | MOLT-4 > 10 µM | UACC-257 > 10 µM | KM12 > 10 µM | SR > 10 µM

CC(C)c1cc(=O)[nH]c2cc(N)ccc12
inactive: LOX IMVI > 100 µM | HOP-92 > 100 µM | SNB-75 86.9 µM | OVCAR-3 > 100 µM | OVCAR-4 > 100 µM | HCT-116 > 100 µM | MDA-MB-231 > 100 µM | MCF7 > 100 µM | SW-620 > 100 µM | MDA-MB-435 > 100 µM | SK-MEL-2 > 100 µM | RXF 393 > 100 µM | SK-MEL-5 > 100 µM | EKVX > 100 µM | MOLT-4 > 100 µM | UACC-257 > 100 µM | KM12 > 100 µM | SR > 100 µM

COc1ccc(-n2cnc3c2=NC(C)(C)NC=3C(N)=O)c(OC)c1
inactive: LOX IMVI > 100 µM | HOP-92 42.1 µM | SNB-75 > 100 µM | OVCAR-3 > 100 µM | OVCAR-4 > 100 µM | TK-10 > 100 µM | HCT-116 > 100 µM | MDA-MB-231 > 100 µM | MCF7 > 100 µM | SW-620 > 100 µM | MDA-MB-435 > 100 µM | HL-60 > 100 µM | RXF 393 > 100 µM | SK-MEL-5 > 100 µM | EKVX > 100 µM | UACC-257 > 100 µM | KM12 > 100 µM | SR > 100 µM

C/C(=N\NC(=O)/C(C#N)=C\c1ccc(N(CCC#N)CCC#N)cc1)c1ccccc1
inactive: LOX IMVI > 10 µM | HOP-92 > 10 µM | SNB-75 > 10 µM | OVCAR-4 > 10 µM | TK-10 > 10 µM | HCT-116 > 10 µM | MDA-MB-231 > 10 µM | MCF7 > 10 µM | SW-620 > 10 µM | MDA-MB-435 > 10 µM | HL-60 > 10 µM | RXF 393 > 10 µM | SK-MEL-5 > 10 µM | EKVX > 10 µM | MOLT-4 > 10 µM | UACC-257 > 10 µM | KM12 > 10 µM | SR > 10 µM

CCOC(=O)c1[nH]cc(C)c1-c1ccc2c(-c3ccccc3)nc3ccccc3n12
inactive: LOX IMVI 3.44 µM | HOP-92 3.52 µM | SNB-75 1.85 µM | OVCAR-3 4.13 µM | OVCAR-4 3.85 µM | TK-10 3.21 µM | HCT-116 3.19 µM | MDA-MB-231 3.13 µM | MCF7 2.1 µM | SW-620 3.13 µM | MDA-MB-435 2.23 µM | SK-MEL-2 4.29 µM | RXF 393 2.03 µM | SK-MEL-5 2.37 µM | EKVX 3.82 µM | MOLT-4 2.31 µM | UACC-257 5.3 µM | KM12 3.45 µM | SR 1.62 µM

O=C(/C=C/c1ccc(O)c(O)c1)OCCCOC(=O)/C=C/c1ccc(O)c(O)c1
inactive: LOX IMVI 12.4 µM | HOP-92 20 µM | SNB-75 47.2 µM | OVCAR-3 10.8 µM | OVCAR-4 23.2 µM | TK-10 29.3 µM | HCT-116 18.2 µM | MDA-MB-231 62.1 µM | MCF7 30.6 µM | SW-620 11.4 µM | MDA-MB-435 30.2 µM | SK-MEL-2 41.8 µM | RXF 393 26.8 µM | SK-MEL-5 15.9 µM | EKVX 33.4 µM | MOLT-4 10.9 µM | UACC-257 26.4 µM | KM12 33.3 µM | SR 17.2 µM
